The values below come from publication PMC2661907, “The Proteasome Is a Molecular Target of Environmental Toxic Organotins” (Environmental Health Perspectives, 2008).

The target of the test is T1, 20S proteasome (chymotrypsin-like activity, β5 subunit) (Oryctolagus cuniculus, UniProt G1T4Q9).
T1 construct: gene PSMB5; purified rabbit 20S proteasome; with other subunits of the 20S proteasome
T1 sequence (G1T4Q9 1-263): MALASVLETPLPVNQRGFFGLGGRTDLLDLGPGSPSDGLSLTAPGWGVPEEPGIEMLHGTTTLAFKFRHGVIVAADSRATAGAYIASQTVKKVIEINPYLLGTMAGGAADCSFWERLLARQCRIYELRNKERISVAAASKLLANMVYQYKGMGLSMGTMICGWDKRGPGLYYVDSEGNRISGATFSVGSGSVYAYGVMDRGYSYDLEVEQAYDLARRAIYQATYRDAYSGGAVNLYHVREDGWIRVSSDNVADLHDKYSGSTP
Briefly: fluorogenic peptide CT-like activity assay on purified. Format: biochemical.

Usually IC50 stands for the concentration needed to halve the response being measured. High values mean weaker potency in that assay, low ones greater potency in that assay. Regarding `CCC[CH2][Sn]([Cl])([CH2]CCC)[CH2]CCC` [TBT, tributyltin chloride], half-maximal inhibition (IC50) was put at 15.6 µM.
